Structures can show the parent of a compound that is named as a salt.
These compounds were tested against AaDOP2 (Aedes aegypti, UniProt H6D5H2) (assay: AaDOP2 antagonist screen of the LOPAC1280 library (HEK-CRELuc-Aadop2 cells, luminescence)). Settings: not given.
Format: cell-based

Sequence of AaDOP2 (H6D5H2 1-476): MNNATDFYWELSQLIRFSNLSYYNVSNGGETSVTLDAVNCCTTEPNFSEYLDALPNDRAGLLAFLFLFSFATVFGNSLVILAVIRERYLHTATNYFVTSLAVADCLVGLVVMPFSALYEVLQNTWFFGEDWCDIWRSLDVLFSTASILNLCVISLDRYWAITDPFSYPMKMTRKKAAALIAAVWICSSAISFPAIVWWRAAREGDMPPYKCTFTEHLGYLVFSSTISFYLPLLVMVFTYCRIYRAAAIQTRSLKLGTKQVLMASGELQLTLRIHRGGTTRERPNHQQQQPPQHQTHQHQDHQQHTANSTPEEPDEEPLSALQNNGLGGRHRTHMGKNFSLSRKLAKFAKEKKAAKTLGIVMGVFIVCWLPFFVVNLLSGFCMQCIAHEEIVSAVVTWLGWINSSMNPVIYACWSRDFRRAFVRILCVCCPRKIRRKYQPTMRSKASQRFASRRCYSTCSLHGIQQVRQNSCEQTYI

In order of rising “Compound effect (percent receptor signaling in presence of test compound, relative lux units relative to the SCH23390 control)” value:
1. Cn1cnc2c(NCc3ccccc3)nc(NCCO)nc21 [Compound 897, Olomoucine]  47
2. C#C[C@]1(O)CC[C@H]2[C@@H]3CCC4=Cc5nc6nc7ccccc7n6cc5C[C@]4(C)[C@H]3CC[C@@]21C [Compound 1265, WIN 62,577]  59
3. Oc1ccc(-c2nc(-c3ccncc3)c(-c3ccc(F)cc3)[nH]2)cc1 [Compound 178, SB 202190]  65
4. O=NN(CCCl)C(=O)NCCCl [Compound 219, Carmustine]  82
5. FC(F)(F)c1ccccc1-n1ccnc1 [Compound 1200, 1-[2-(Trifluoromethyl)phenyl]imidazole]  86
6. N[C@@H](C(=O)N[C@@H]1C(=O)N2C(C(=O)O)=C(Cl)CS[C@H]12)c1ccccc1 [Compound 290, Cefaclor]  87
7. CNCC(O)c1ccc(O)cc1 (racemic) [Compound 1077, (±)-Synephrine]  88
8. C[C@]12C=CC(=O)C=C1CC[C@@H]1C2=CC[C@]2(C)[C@@H](C(=O)CN3CCN(c4cc(N5CCCC5)nc(N5CCCC5)n4)CC3)CC[C@@H]12.O=C(O)/C=C\C(=O)O [Compound 1234, U-74389G maleate]  88
9. CCOC(=O)c1ncn2c1[C@@H]1CCCN1C(=O)c1cc(OC)ccc1-2 [Compound 718, L-655,708]  90
10. C#CCN(C)Cc1ccccc1 [Compound 975, Pargyline hydrochloride]  95
11. CC(C)[C@@]1(NC(=O)[C@@H]2C=C3c4cccc5[nH]cc(c45)C[C@H]3N(C)C2)O[C@@]2(O)[C@@H]3CCCN3C(=O)[C@H](Cc3ccccc3)N2C1=O [Compound 508, Ergocristine]  100
12. CCCN(CCC)C(=O)Cc1c(-c2ccc(Cl)cc2)nc2c(Cl)cc(Cl)cn12 [Compound 289, CB34]  106
13. CCc1cccc(N(C)C(N)=Nc2cccc3ccccc23)c1 [Compound 256, CNS-1102]  107
14. COCc1nc2c([nH]1)c(=O)n(C)c(=O)n2CC(C)C [Compound 749, 8-Methoxymethyl-3-isobutyl-1-methylxanthine]  107
15. NC(=O)CC[C@H](N)C(=O)O [Compound 551, L-Glutamine]  115
16. Cl.NCCCCC(=O)O [Compound 4, 5-Aminovaleric acid hydrochloride]  115
17. COc1ccc(CCN(C)CCCC(C#N)(c2ccc(OC)c(OC)c2)C(C)C)cc1OC.Cl (racemic) [Compound 1252, (±)-Verapamil hydrochloride]  117
18. CC(C)[N+]1(C)[C@@H]2CC[C@H]1C[C@@H](OC(=O)C(CO)c1ccccc1)C2 (some centres unmarked) [Compound 635, Ipratropium bromide]  118
19. CCCCOc1cc(CC2CNC(=O)N2)ccc1OC (centres unmarked) [Compound 189, Ro 20-1724]  122

Same assay, conditions: 10 µM compound, 300 nM dopamine, 2 hr; hit = compound effect <20

For CCCCCCCCCC(=O)NC(CN1CCOCC1)[C@H](O)c1ccccc1.Cl (mixture of isomers) [Compound 968, (±)-threo-1-Phenyl-2-decanoylamino-3-morpholino-1-propanol hydrochloride], the “Compound effect (percent receptor signaling in presence of test compound, relative lux units relative to the SCH23390 control)” value was 85%.

Reference: paper PMC3265452 (PLoS Neglected Tropical Diseases, 2012)
